{"source": "patent US9474282B2", "about": "“Acid-solubilized copper-ammonium complexes and copper-zinc-ammonium complexes, compositions, preparations, methods, and uses” (priority 2013, dated 2016)", "key": {"[1]": {"test_system": "Staphylococcus aureus strain (S1)", "assay": "Agar plate test for antibacterial effect, area of inhibition", "assay_type": "cell-based", "experimental": "(§1) A 0.2 milliliter sample of the P. acnes culture was spread onto a 9 centimeter Petri dish containing BHI agar and allowed to dry.\n(§2) The composition to be tested was either diluted with distilled water and 5 microliters was placed onto a 5 millimeter filter paper disc or was added to the Aloe vera-based gel (without preservatives) described above at various concentrations and a 5 microliter drop was placed onto the agar surface. The plates were then incubated at 37° C. for 24 hours (under anaerobic conditions for P. acnes), when the zones of inhibition (ZoI) were measured in millimeters) twice at a […] angle using a ruler and the average diameter (D) was calculated. The area of inhibition in mm^2 (AoI) was calculated using the formula: AoI=π×(D/2)^2."}, "[2]": {"test_system": "Chalara fraxinea isolate 196/28 (C. fraxinea)", "assay": "Anti-fungal assay with plant pathogenic fungi on PDA", "assay_type": "cell-based", "experimental": "(§3) Chalara […] isolate 196/28 ([…]), Aspergillus niger (A. niger) and a strain isolated from powdery mildew (Pm; isolated from an apple leaf) were cultured on potato dextrose agar (PDA) at room temperature (around 22° C.). […] The plate was agitated to evenly distribute the test composition evenly through the agar (distilled water alone was used as control) and then the agar was allowed to set. […] To assess the effects of compositions on fungal growth, the diameter of the fungal hyphae was measured twice at a 90° angle using a ruler and the average diameter in millimeters was calculated. If no fungal growth could be detected by eye, the cultures were observed by phase microscopy (40×) to confirm that there was no growth (NG) as judged by visual examination."}, "[3]": {"test_system": "Aspergillus niger (A. niger)", "assay": "Anti-fungal assay with plant pathogenic fungi on PDA", "assay_type": "cell-based", "experimental": "as §3"}, "[4]": {"test_system": "P. acnes", "assay": "Bacterial microplate cultures (MIC)", "assay_type": "cell-based, Propionibacterium acnes", "experimental": "(§4) The aerobic bacterial strains Acinetobacter baumannii (A. baumannii), methicillin-resistant Staphylococcus aureus (MRSA) and Klebsiella pneumonia (K. pneumoniae) were isolated from swabs taken in a hospital ward. Escherichia coli (NCTC 9001; E. coli) is a clinical isolate from a patient's urinary bladder; all strains were cultured in RPMI-1640. Stock solutions of the compounds/compositions to be tested were diluted so that double dilutions in the microplate assays commenced at a 1% vol/vol concentration. Double dilutions of the compositions to be tested were prepared in RPMI-1640 in a 96-well tissue culture plate. The bacterial cultures were diluted 1:40 with fresh RPMI and added to the compositions. P. acnes was cultured as described in EXAMPLE 1 (Agar plate test methods) and a sample was diluted 1:100 with fresh BHI. Double dilutions of the compositions to be tested were prepared as described above in distilled water in a 96-well tissue culture plate (100 microliters) and 100 microliters of the diluted P. acnes culture was added. The plates were then incubated at 37° C. for 24 hours (under anaerobic conditions for P. acnes). The minimum inhibitory concentration (MIC) of the compositions was defined as the lowest concentration at which no visible bacterial growth was observed."}, "[5]": {"test_system": "strain isolated from powdery mildew (Pm)", "assay": "Anti-fungal assay with plant pathogenic fungi on PDA", "assay_type": "cell-based, powdery mildew (isolated from an apple leaf)", "conditions": "3 days of culture", "experimental": "as §3"}, "[6]": {"test_system": "Propionibacterium acnes strain ATCC 11828 (P. acnes)", "assay": "Agar plate test for antibacterial effect, zone of inhibition", "assay_type": "cell-based", "conditions": "stock diluted 1:200 in distilled water (200 microgram/milliliter elemental copper for Cu# and copper sulfate), BHI agar, 24 hours anaerobic", "experimental": "as §1, §2"}, "[7]": {"test_system": "A-431", "assay": "Cytotoxicity assay with a human squamous epithelial skin cell line (SRB assay)", "conditions": "confluent A-431, 24 hours, SRB (FIG. 4)", "description": "A-431 (ATCC) was cultured in RPMI-1640 medium supplemented with 10% fetal bovine serum and 2 mM L-glutamine (complete medium) in a humidified incubator at 37′C with a 5% CO2 in air atmosphere. For cytotoxicity experiments the cells were trypsinized, washed, counted and 2×10^4 cells were plated into the wells of flat-bottom 96-well plates in complete medium and cultured for 3 days until a confluent monolayer was formed. […] All test products were diluted in complete medium and then added in triplicate to the confluent A-431 cells which were then cultured for a further 24 hours when cytotoxicity/cell survival was quantitatively assessed using the sulforhodamine B (SRB) assay as described below.\nThe cells were washed twice with RPMI-1640 medium and then fixed with 10% trichloroacetic acid for 1 hour at 4° C. After washing twice with tap water, the cells were stained with SRB (0.4% w/v SRB in 1% acetic acid) for 30 min at room temperature. After washing twice with tap water the remaining stain was dissolved in 10 mM Tris base and the absorbance of the wells was measured on a Dynatech Multiplate ELISA reader at 540 nm. Percent cell survival was calculated by dividing the test product absorbance by control absorbance and multiplying by 100."}, "[8]": {"test_system": "Escherichia coli (NCTC 9001; E. coli)", "assay": "Bacterial microplate cultures (MIC)", "assay_type": "cell-based", "conditions": "RPMI-1640, 24 hours", "experimental": "as §4"}, "[9]": {"test_system": "Klebsiella pneumonia (K. pneumoniae)", "assay": "Bacterial microplate cultures (MIC)", "assay_type": "cell-based", "conditions": "RPMI-1640, 24 hours", "experimental": "as §4"}, "[10]": {"test_system": "Acinetobacter baumannii (A. baumannii)", "assay": "Bacterial microplate cultures (MIC)", "assay_type": "cell-based", "conditions": "RPMI-1640, 24 hours", "experimental": "as §4"}, "[11]": {"test_system": "methicillin-resistant Staphylococcus aureus (MRSA)", "assay": "Bacterial microplate cultures (MIC)", "assay_type": "cell-based", "conditions": "RPMI-1640, 24 hours", "experimental": "as §4"}, "[12]": {"assay": "pH of stock solutions and gel formulation", "assay_type": "physicochemical", "conditions": "stock solution"}, "[13]": {"test_system": "Cryptococcus neoformans strain CCTP13", "assay": "Anti-fungal/yeast microplate assay (MIC, resazurin)", "assay_type": "cell-based", "conditions": "C. neoformans", "experimental": "(§5) The three strains of Candida albicans (C. albicans) used: 1-1, 3-1 and 4-1 were isolated from human blood, vagina and oropharynx, respectively. Cryptococcus neoformans (C. neoformans) strain CCTP13 was used. All strains were cultured in RPMI-1640 medium at 37° C. The copper sulfate and Cu# compositions started at a high concentration of 200 micrograms/milliliter, whilst the Cu—Zn# compositions started at a high concentrations of 1% of the stock solution (Table 2) and zinc sulfate and phosphorous acid started with a high concentrations equivalent to those in Cu—Zn#7 and #10 (see the legend of Table 1 for details) doubling dilutions (100 microliters) of the compositions were prepared in RPMI-1640 in a 96-well tissue culture plate. Overnight C. albicans and C. neoformans cultures were diluted 1:40 and 1:10 respectively with fresh RPMI containing 40 mM MOPS buffer and 90 microliters was added to the compositions in the plate. Resazurin A (10 microliters of a 0.0675% wt/vol solution in distilled water) was added as an indicator of growth, and the cultures were incubated at 37° C. for 24 hr. The minimum inhibitory concentration (MIC) of the compounds/compositions was defined as the lowest concentration at which the resazurin A indicator remained blue (living cells convert the blue dye to a pink color)."}, "[14]": {"test_system": "Candida albicans strains 1-1, 3-1 and 4-1", "assay": "Anti-fungal/yeast microplate assay (MIC, resazurin)", "assay_type": "cell-based", "experimental": "as §5"}, "[15]": {"conditions": "Experiment #1, 24 hours anaerobic"}, "[16]": {"conditions": "C. albicans strain 1-1, copper-free controls, concentration of zinc sulfate or phosphorous acid"}, "[17]": {"conditions": "C. albicans strain 3-1, copper-free controls, concentration of zinc sulfate or phosphorous acid"}, "[18]": {"conditions": "C. albicans strain 4-1, copper-free controls, concentration of zinc sulfate or phosphorous acid"}}, "note": "Marks after values point to notes of the source that are not given here.", "data": [{"smiles": "O=S(=O)([O-])[O-].[Cu+2]", "note": "[Copper sulfate, copper sulfate]", "values": [{"measurement": "Area of inhibition (AoI)", "setting": "[1]; dissolved in gel, 800 micrograms/milliliter, TSA, 24 hours (FIG. 1)", "value": 28, "unit": "mm^2"}, {"measurement": "Diameter of fungal growth (mm)", "setting": "[2]; 3.75 μg/ml, Day 7", "value": 14, "unit": "mm"}, {"measurement": "Diameter of fungal growth (mm)", "setting": "[2]; 3.75 μg/ml, Day 15", "value": 20, "unit": "mm"}, {"measurement": "Diameter of fungal growth (mm)", "setting": "[2]; 12.5 μg/ml, Day 7", "value": 14, "unit": "mm"}, {"measurement": "Diameter of fungal growth (mm)", "setting": "[2]; 12.5 μg/ml, Day 15", "value": 20, "unit": "mm"}, {"measurement": "Diameter of fungal growth (mm)", "setting": "[2]; 37.5 μg/ml, Day 7", "value": 13, "unit": "mm"}, {"measurement": "Diameter of fungal growth (mm)", "setting": "[2]; 37.5 μg/ml, Day 15, 20 mm = confluent", "value": "20** mm"}, {"measurement": "Diameter of fungal growth (mm)", "setting": "[2]; 125 μg/ml, Day 7", "value": 10, "unit": "mm"}, {"measurement": "Diameter of fungal growth (mm)", "setting": "[2]; 125 μg/ml, Day 15", "value": 18, "unit": "mm"}, {"measurement": "Diameter of fungal growth (mm)", "setting": "[3]; 12.5 μg/ml, Day 4", "value": 15, "unit": "mm"}, {"measurement": "Diameter of fungal growth (mm)", "setting": "[3]; 12.5 μg/ml, Day 7", "value": 17, "unit": "mm"}, {"measurement": "Diameter of fungal growth (mm)", "setting": "[3]; 12.5 μg/ml, Day 11", "value": 18, "unit": "mm"}, {"measurement": "Diameter of fungal growth (mm)", "setting": "[3]; 37.5 μg/ml, Day 4", "value": 13, "unit": "mm"}, {"measurement": "Diameter of fungal growth (mm)", "setting": "[3]; 37.5 μg/ml, Day 7", "value": 16, "unit": "mm"}, {"measurement": "Diameter of fungal growth (mm)", "setting": "[3]; 37.5 μg/ml, Day 11", "value": 18, "unit": "mm"}, {"measurement": "Diameter of fungal growth (mm)", "setting": "[3]; 125 μg/ml, Day 4, NG = no growth by phase microscopy", "value": 7, "unit": "mm"}, {"measurement": "Diameter of fungal growth (mm)", "setting": "[3]; 125 μg/ml, Day 7, NG = no growth", "value": 10, "unit": "mm"}, {"measurement": "Diameter of fungal growth (mm)", "setting": "[3]; 125 μg/ml, Day 11, NG = no growth", "value": 15, "unit": "mm"}, {"measurement": "MIC", "setting": "[4]; [15]", "value": 100, "unit": "µg/mL"}, {"measurement": "MIC", "setting": "[4]; Experiment #2, 24 hours anaerobic", "value": 200, "unit": "µg/mL"}, {"measurement": "Diameter of fungal growth (mm)", "setting": "[5]; 12.5 μg/ml", "value": 17, "unit": "mm"}, {"measurement": "Diameter of fungal growth (mm)", "setting": "[5]; 37.5 μg/ml", "value": 17, "unit": "mm"}, {"measurement": "Diameter of fungal growth (mm)", "setting": "[5]; 125 μg/ml", "value": 13, "unit": "mm"}, {"measurement": "Diameter of fungal growth (mm)", "setting": "[5]; 375 μg/ml, NG = no growth", "value": "3* mm"}, {"measurement": "Zone of Inhibition (mm)", "setting": "[6]", "value": 13, "unit": "mm"}, {"measurement": "50% cytotoxic concentrations (CC50)", "setting": "[7]", "value": 50, "unit": "micrograms/milliliter"}, {"measurement": "MIC", "setting": "[8]", "value": 100, "unit": "microgram/milliliter"}, {"measurement": "MIC", "setting": "[9]", "value": 50, "unit": "microgram/milliliter"}, {"measurement": "MIC", "setting": "[10]", "value": 6.3, "unit": "microgram/milliliter"}, {"measurement": "MIC", "setting": "[11]", "value": 12.5, "unit": "microgram/milliliter"}, {"measurement": "pH of stock solutions", "setting": "[12]", "value": 3.4}, {"measurement": "MIC (μg/ml Cu^2+)", "setting": "[13]; 24 hr", "value": 6.3, "unit": "μg/ml Cu^2+"}, {"measurement": "MIC (μg/ml Cu^2+)", "setting": "[14]; C. albicans strain 1-1, 24 hr", "value": 6.3, "unit": "μg/ml Cu^2+"}, {"measurement": "MIC (μg/ml Cu^2+)", "setting": "[14]; C. albicans strain 3-1, 24 hr", "value": 6.3, "unit": "μg/ml Cu^2+"}, {"measurement": "MIC (μg/ml Cu^2+)", "setting": "[14]; C. albicans strain 4-1, 24 hr", "value": 6.3, "unit": "μg/ml Cu^2+"}]}, {"smiles": "O=S(=O)([O-])[O-].[Zn+2]", "note": "[Zinc sulfate, zinc sulfate]", "values": [{"measurement": "effect on the growth of S1 (S. aureus)", "setting": "[1]; alone in gel, 50-200 micrograms/milliliter (FIG. 2)", "value": "no effect"}, {"measurement": "effect on the growth of S1 (S. aureus)", "setting": "[1]; in gel, 100 micrograms/milliliter (FIG. 3)", "value": "no effect"}, {"measurement": "MIC", "setting": "[4]; [15]", "value": 25, "unit": "µg/mL"}, {"measurement": "MIC", "setting": "[4]; Table 5 experiment, varying Cu:Zn ratios", "value": 50, "unit": "µg/mL"}, {"measurement": "MIC", "setting": "[13]; copper-free control, concentration of zinc sulfate", "value": ">150", "unit": "µg/mL"}, {"measurement": "MIC", "setting": "[14]; [16]", "value": ">150", "unit": "µg/mL"}, {"measurement": "MIC", "setting": "[14]; [17]", "value": ">150", "unit": "µg/mL"}, {"measurement": "MIC", "setting": "[14]; [18]", "value": ">150", "unit": "µg/mL"}, {"measurement": "MIC", "setting": "[14]; C. albicans strains", "value": "> 150", "unit": "micrograms/milliliter"}]}, {"smiles": "OP(O)O", "note": "[Composition H3PO3, phosphorous acid]", "values": [{"measurement": "MIC", "setting": "[14]; [16]", "value": ">500", "unit": "µg/mL"}, {"measurement": "MIC", "setting": "[14]; [17]", "value": ">500", "unit": "µg/mL"}, {"measurement": "MIC", "setting": "[14]; [18]", "value": ">500", "unit": "µg/mL"}, {"measurement": "MIC", "setting": "[14]; C. albicans strains", "value": "> 500", "unit": "micrograms/milliliter"}]}]}
